Experiments:
[1] = tested on: MGC-803 (human lung adenocarcinoma cell line); assay: MTT cytotoxicity assay, MGC-803; assay type: cell-based; conditions: 48 h, no irradiation, mean ± SD of three experiments
Procedure: (§1) Cell Lines. The following in vitro human cancer cell lines were used: HCT-116 (Human colorectal cells), human KB (human nasopharyngeal carcinoma cells), MGC-803 (human lung adenocarcinoma cell line), HUVEC (Human Umbilical Vein Endothelial Cells). The cell lines (HCT-116, KB, MGC-803 and HUVEC) were purchased from the Cell Resource Center of Shanghai Institutes for Biological Sciences, the Academy of Sciences of China.
(§2) Cell Culture. HCT-116, human KB, MGC-803 and HUVEC cells were cultured in Dulbecco Modified Eagle Medium (DMEM; HyClone, Los Angeles, CA, USA), containing 4.0 mM L-Glutamine and 4500 mg/L Glucose, supplemented with 10% (v/v) foetalbovine serum (FBS; HyClone). The cell culturemedia was supplemented with penicillin/streptomycin at 100 Units/mL as adherent monolayers. Cell cultures were kept in a humidified incubator with 5% CO2 at 37 °C. Stock solutions were prepared in dimethyl sulfoxide (DMSO) and further dilutions were made with fresh culture medium. The concentration of DMSO in the final culture medium was 1%, which had no effect on the cell viability.
(§3) MTT Assay. Chemosensitivity was assessed using 3-(4,5-dimethylthiazol-2-yl)-2,5-diphenyl tetrazolium bromide (MTT) assay. Briefly, exponentially growing HCT-116 (3000–4000 cells/well), human KB (2000–3000 cells/well) and MGC 803 (2000–3000 cells/well) were seeded into 96-well plates and treated with indicated concentrations of samples for 48 h, and then […] of MTT (10 mg/mL) was added. After incubation for 4 h at 37 °C, the purple formazan crystals (i.e., a reduced form of MTT) generated from viable cells were dissolved by adding 100 μL DMSO in each well. The plates were swirled gently for 10 min to dissolve the precipitate, and quantified by measuring the optical density (OD) of the plates at a wavelength of 490 nm on plate reader (TECAN infinite M1000). Each concentration was repeated in three wells and the same experimental conditions were provided for all compounds and MTT analysis was repeated three times for each cell line.

[2] = tested on: HCT-116 (Human colorectal cells); assay: MTT cytotoxicity assay, HCT-116; assay type: cell-based; conditions: for IC50: MTT, 48 h, no irradiation, mean ± SD of three experiments
Procedure: as §1, §2, §3

[3] = tested on: HUVEC (Human Umbilical Vein Endothelial Cells); assay: MTT cytotoxicity assay, HUVEC normal cells; assay type: cell-based; conditions: no irradiation, mean ± SD of three experiments
Procedure: as §1, §2, §3

[4] = tested on: GelRed/CT-DNA; assay: GelRed-DNA competitive binding (fluorescence quenching); set-up: species or system calf; conditions: I0/I vs [Q]; [GelRed]/[DNA] = 1:10, ex 350 nm, em 590 nm
[5] = tested on: CT-DNA; assay: Spectrofluorimetric titration with CT-DNA (Stern-Volmer and binding constants); set-up: species or system calf; conditions: from F0/F-1 vs [DNA]; Tris-HCl buffer pH 7.2
Procedure: The DNA binding properties of compounds 8a–8j were evaluated based on their affinity or interaction with CT-DNA, measured with fluorescence spectrometric titration.
The calibration curve for determination of DNA was constructed by adding different proportion of DNA to a 2.0 × 10^−3 M compound 8j solution (pH = 7.2 Tris-HCl buffer). […] [Q] is the concentration of quencher. KSV is the Stern-Volmer constant and KQ is the bimolecular quenching rate constant. τ0 is the lifetime of the fluorophore in the absence of quencher and for most biomolecules τ0 is about 10^−8 s. The Stern-Volmer constant, KSV, for compound 8j has been determined from the plot of F0/F-1 vs. [DNA] (see Figure 2) and found to be 5.11 × 10^2 M^−1.
When small molecules binding independently to a set of equivalent sites on a macromolecule, the equilibrium between free and bound molecules is given by the equation [28]: (2) lg (F0/F-1) = lgKb + nlg[Q] where Kb and n are the binding constant and the number of binding sites, respectively, which could be got from the curve of lg(F0/F-1) vs. lg[Q]. The plot of lg(F0/F-1) vs. lg[DNA] has been shown in Figure 3 for compound 8j and indicates a simple binding process for the compound.
All fluorescence experiments were carried out on a Perkin-Elmer LS50B luminescence spectrometer. Fluorescence spectra were measured at rt using quartz cells of 1cm path. To the solutions of the drugs (2.0 × 10^−3 M) in 2.5 mL Tris-HCl buffer (pH = 7.2) were added aliquots of CT-DNA (2.0 × 10^−3 M) solution containing drugs (2.0 × 10^−3 M) in 2.5 mL Tris-HCl buffer (pH = 7.2). This operation ensured that the concentration of CT-DNA increased gradually from 0 to 360 µM, while the concentrations of drugs were kept constant. The mixing was achieved by stirring for 10min. Then, the corresponding fluorescence spectra were measured (ex 325 nm, ex/em 1.5 nm/1.5 nm). Binding constants were derived from the modified.

[6] = tested on: CT-DNA; assay: Circular dichroism spectra of CT-DNA; assay type: binding, calf; conditions: [compound]/[DNA] 1:10; 1.5 × 10^−4 M DNA, 1.5 × 10^−5 M compound
Procedure: CD absorption spectra of DNA were measured in TBS at a 100 nm/min scan rate in the wavelength range from 200 to 500 nm, with 1.5 × 10^−4 M DNA in the absence and presence of each compound of 1.5 × 10^−5 M, respectively. The CD signal of TBS was taken as the background and subtracted from the spectra. All the spectroscopic experiments were performed at 25 °C.

| Structure (SMILES) | IC50 [1] [µM] | IC50 [2] [µM] | IC50 [3] [µM] | Kq (quenching constant of GelRed bound to DNA) [4] [M⁻¹] | KSV (Stern-Volmer constant) [5] [M⁻¹] | Negative AI decrease (CD absorption peak of CT-DNA at 247 nm) [6] [%] | Positive AI decrease (CD absorption peak of CT-DNA at 281 nm) [6] [%] | IC50 ([1]; Homo sapiens, MGC-803, light or radiation study) [µM] | Fold of IC50 against HCT-116 relative to unsubstituted parent compound ([2]; HCT-116, vs 4-MU) | IC50 ([2]; Homo sapiens, HCT-116, light or radiation study) [µM] | IC50 ([3]; Homo sapiens, HUVEC, light or radiation study) [µM] |
| --- | --- | --- | --- | --- | --- | --- | --- | --- | --- | --- | --- |
| CCOP(=O)(OCC)C(NC(=O)CCOc1ccc2c(C)cc(=O)oc2c1)c1cccc(Br)c1 (stereo not drawn) [Compound 8f, Diethyl(3-(4-methyl-2-oxo-2H-chromen-7-yloxy)propanamido)(3-bromophenyl)methylphospho-nate] | 74.2 ± 3.36 | 25.8 ± 1.21 | > 100 | 1730 | 412 | 26.9 | 23.1 |  |  |  |  |
| CCOP(=O)(OCC)C(C)(NC(=O)CCOc1ccc2c(C)cc(=O)oc2c1)c1ccccc1 (stereo not drawn) [Compound 8j, Diethyl 1-(3-(4-methyl-2-oxo-2H-chromen-7-yloxy)propanamido)-1-phenylethylphosphonate] |  |  |  | 2350 | 511 | 30.4 | 26.82 | 14.6 ± 1.11 | about 12 fold | 8.68 ± 3.2 | > 100 |

From PMC6331810, “Novel Coumarin-Containing Aminophosphonatesas Antitumor Agent: Synthesis, Cytotoxicity, DNA-Binding and Apoptosis Evaluation” (Molecules, 2015)
